Assay results as given in patent US20160222430A1, “D-ALA-D-ALA-BASED DIPEPTIDES AS TOOLS FOR IMAGING PEPTIDOGLYCAN BIOSYNTHESIS” (INDIANA UNIVERSITY RESEARCH AND TECHNOLOGY CORPORATION, priority 2013, published 2016).
Like-named read-outs stand apart in the source and are kept apart here. Where a SMILES comes first, the peptide text is derived from it. [ ]: non-standard residue; d: D form.

Tests used:
[1] = test system: C. trachomatis serovar L2 strain 434/Bu; experiment: DCS Chlamydia trachomatis plaque assay in L2 mouse fibroblast monolayers; assay type: cell-based; settings: DCS 294 μM
E. coli wt = assay type: cell-based, Escherichia coli; parameters: Growth rescue (culture density), E. coli wt: key: +++++: highest culture density achieved within a set; ++++: intermediate values, relative fractions of the highest culture density within a set; +++: intermediate values, relative fractions of the highest culture density within a set; ++: intermediate values, relative fractions of the highest culture density within a set; +: intermediate values, relative fractions of the highest culture density within a set; −: no bacterial growth
B. subtilis wt = assay type: cell-based, Bacillus subtilis; parameters: Growth rescue (culture density), B. subtilis wt: key: +++++: highest culture density achieved within a set; ++++: intermediate values, relative fractions of the highest culture density within a set; +++: intermediate values, relative fractions of the highest culture density within a set; ++: intermediate values, relative fractions of the highest culture density within a set; +: intermediate values, relative fractions of the highest culture density within a set; −: no bacterial growth
E. coli ΔddlA ΔddlB = assay type: cell-based, Escherichia coli
[2] = test system: C. trachomatis serovar L2 strain 434/Bu; experiment: Labeling of chlamydial PG in infected L2 cells; assay type: cell-based, Chlamydia trachomatis; settings: grown for 18 h in the presence of antibiotic (DCS 294 μM or ampicillin 2.8 μM)
E. coli cells = experiment: PG labeling of E. coli with dipeptide probes, click chemistry and epifluorescence microscopy; assay type: cell-based, Escherichia coli; settings: 0.5 mM, 45 min; clicked to Alexa Fluor 488 azide
B. subtilis cells = assay type: cell-based, Bacillus subtilis
A. tumefaciens = experiment: Control experiment with fluorescent D-Ala and L-Ala in A. tumefaciens; assay type: cell-based, Agrobacterium tumefaciens
Experimental: Control experiments were carried out in A. tumefaciens, B. subtilis and E. coli with fluorescent D-Ala (D-HCC) and fluorescent L-Ala (L-HCC). […] This observation was true for all strains tested.

E. coli = experiment: FDAA/CDAA labeling of E. coli, fluorescence microscopy; assay type: cell-based, Escherichia coli; settings: 2%-8% of doubling time
Wherever Growth (culture density), B. subtilis wt is given: key: +++++: highest culture density achieved within a set; ++++: intermediate values, relative fractions of the highest culture density within a set; +++: intermediate values, relative fractions of the highest culture density within a set; ++: intermediate values, relative fractions of the highest culture density within a set; +: intermediate values, relative fractions of the highest culture density within a set; −: no bacterial growth.
Wherever Growth (culture density), E. coli wt is given: key: +++++: highest culture density achieved within a set; ++++: intermediate values, relative fractions of the highest culture density within a set; +++: intermediate values, relative fractions of the highest culture density within a set; ++: intermediate values, relative fractions of the highest culture density within a set; +: intermediate values, relative fractions of the highest culture density within a set; −: no bacterial growth.
Wherever Growth rescue (culture density), E. coli Δddla, Δddlb is given: key: +++++: highest culture density achieved within a set; ++++: intermediate values, relative fractions of the highest culture density within a set; +++: intermediate values, relative fractions of the highest culture density within a set; ++: intermediate values, relative fractions of the highest culture density within a set; +: intermediate values, relative fractions of the highest culture density within a set; −: no bacterial growth.

## C[C@@H](N)C(=O)O [D-Ala, D-alanine]
[1]; amino acid to DCS ratio 1:1
  Plaque formation: ++++
[1]; amino acid to DCS ratio 1:10
  Plaque formation: +++

## C[C@@H](N)C(=O)N[C@H](C)C(=O)O [DA-DA, D-alanyl-D-alanine] (H-[dA]-[dA]-OH)
E. coli wt
  Growth rescue (culture density), E. coli wt: ++
B. subtilis wt
  Growth rescue (culture density), B. subtilis wt: ++++
E. coli ΔddlA ΔddlB; MM (M9 + 0.2% glucose) + 25 μM, initial inoculum OD600 = 0.025
  Growth rescue (culture density), E. coli Δddla, Δddlb: ++
E. coli ΔddlA ΔddlB; MM + 25 μM, initial inoculum OD600 = 0.0025
  Growth rescue (culture density), E. coli Δddla, Δddlb: +
E. coli ΔddlA ΔddlB; MM + 200 μM, initial inoculum OD600 = 0.025
  Growth rescue (culture density), E. coli Δddla, Δddlb: +++++
[1]; amino acid to DCS ratio 1:1
  Plaque formation: ++
[1]; amino acid to DCS ratio 10:1
  Plaque formation: +++

## N[C@@H]1CONC1=O [DCS, D-cycloserine]
E. coli wt
  Growth (culture density), E. coli wt: −
[2]
  Morphology of chlamydial RBs grown with antibiotic: inclusions contained enlarged, aberrant RBs
B. subtilis wt
  Growth (culture density), B. subtilis wt: −
[1]; no amino acid
  Plaque formation: −

## C#CN[C@@H](C)C(=O)N[C@@H](C)C(=O)O [ELA-LA, ethynyl-L-alanyl-L-alanine]
E. coli cells
  PG labeling signal, L-enantiomer control: No labeling was observed
B. subtilis cells
  PG labeling signal, L-enantiomer control: No labeling was observed
E. coli ΔddlA ΔddlB; MM + 0.8 mM, initial inoculum OD600 = 0.025
  Growth rescue (culture density), E. coli Δddla, Δddlb: −
E. coli ΔddlA ΔddlB; MM + DA-DA (25 μM) + 0.80 mM of the analog, initial inoculum OD600 = 0.0025
  Growth rescue (culture density), E. coli Δddla, Δddlb: +

## NC(CNC(=O)c1cc2ccc(O)cc2oc1=O)C(=O)O (stereo not drawn) [HADA]
A. tumefaciens
  Incorporation into the cell wall: incorporated into the cell wall
E. coli
  Localization of signal after short labeling times: preferential localization of the signal at the septal plane of pre-divisional cells and in punctate patterns on the lateral walls of elongating cells

## N[C@@H](CNC(=O)c1cc2ccc(O)cc2oc1=O)C(=O)O [HALA]
A. tumefaciens
  Incorporation into the cell wall: only D-HCC was incorporated into the cell wall

## CC1(C)S[C@@H]2[C@H](NC(=O)[C@H](N)c3ccccc3)C(=O)N2[C@H]1C(=O)O [ampicillin]
[2]
  Morphology of chlamydial RBs grown with antibiotic: inclusions contained enlarged, aberrant RBs
